Results published in US20250065147A1, “SYSTEMS AND METHODS FOR PHOTODYNAMIC THERAPY” (Virginia Commonwealth University, priority 2023, published 2025).
Several values for one entry are separate records, joined by “and”; a condition that tells them apart may be missing. Equal entries are not always repeated. Entries after “also recorded” stand apart in the source; their conditions may differ.

Legend:
[1] = ICG distribution after administration in patient derived orthotopic xenograft (PDOX) mouse model; assay type: in vivo
Excerpt: (§1) We set up a study of PDT with ICG using patient derived orthotopic xenograft (PDOX) mouse model (FIG. 7). In the PDOX model, the mouse liver has human liver cancer. […] We then found the optimal laser wavelength that liver-ICG can absorb with maximum intensity which was 809 nm (FIG. 2). We set up the laser to treat HCC with PDT with the setting numbers in Table 1.

HCC (human liver cancer) = assay: PDT with ICG (809 nm laser) in PDOX mouse model; assay type: in vivo
Excerpt: as §1

[2] = Optimal laser wavelength that liver-ICG can absorb with maximum intensity; assay type: physicochemical; settings: FIG. 2
Excerpt: as §1

ICG localisation ([1]; at 0 hr after ICG administration): present in the whole body | ICG localisation ([1]; at 6 hrs after ICG administration): present in the liver | optimal laser wavelength that liver-ICG can absorb with maximum intensity [2]: 805-815 nm and 809 nm
Structure (SMILES): CC1(C)C(/C=C/C=C/C=C/C=C2\N(CCCCS(=O)(=O)O)c3ccc4ccccc4c3C2(C)C)=[N+](CCCCS(=O)(=O)[O-])c2ccc3ccccc3c21 [ICG, indocyanine green]
ICG localisation ([1]; at 24 hrs after ICG administration): confined to a liver tumor; also recorded: confined in only HCC inside the liver | finding on MRI after treatment (HCC (human liver cancer); 2 weeks after treatment, PDOX mouse): tumor necrosis | pathologic evaluation of HCC (HCC (human liver cancer); specimen after PDT with ICG): apoptosis of HCC
